We go through four compounds from paper PMC8000041, “New Insights into the Metabolism of the Flavanones Eriocitrin and Hesperidin: A Comparative Human Pharmacokinetic Study” (Antioxidants, 2021).

Details of series [1]: method as in PMID 28970059. The conditions noted are these: eriocitrin vs. hesperidin ref 28; cited from earlier work.
The nature of series [2]: Urinary excretion of flavanone-derived metabolites after single intake of lemon or orange extract (UPLC-ESI-QTOF-MS). The format is in vivo, human. The conditions noted are these: for Occurrence Urine LE (number of volunteers in whom the metabolite was detected): after consuming lemon extract; for Occurrence Urine LE (number of volunteers in whom the metabolite was detected) / Occurrence Urine OE (number of volunteers in whom the metabolite was detected): n = 16 volunteers; for Occurrence Urine OE (number of volunteers in whom the metabolite was detected): after consuming orange extract; for Urinary excretion F1: lemon extract (3.1 g, 260 mg eriocitrin), urine fraction 0-4 h; for Urinary excretion F2: urine fraction 4-8 h; for Urinary excretion F3: urine fraction 8-10 h; for Urinary excretion F4: urine fraction 10-24 h. Put shortly:
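Randomized double-blind crossover, single oral dose of orange extract (260 mg hesperidin) or lemon extract (260 mg eriocitrin) with 2-week washout and flavanone-restricted diet. Urinary flavanone conjugates by targeted UPLC-ESI-QTOF-MS (0.01 m/z window), quantified against standards or, for eriodictyol/homoeriodictyol conjugates, via UV-based relative response factors.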

Series [3] in a line: Plasma metabolites and pharmacokinetics after single intake of lemon or orange extract (UPLC-ESI-QTOF-MS, non-compartmental analysis). The format is in vivo, human. The conditions noted are these: for Occurrence Plasma LE (number of volunteers in whom the metabolite was detected): after consuming lemon extract; for Occurrence Plasma LE (number of volunteers in whom the metabolite was detected) / Occurrence Plasma OE (number of volunteers in whom the metabolite was detected): n = 16 volunteers; for Occurrence Plasma OE (number of volunteers in whom the metabolite was detected): after consuming orange extract; for AUC(0-t) / Cmax / Tmax: after lemon extract, mean ± SD. An outline of the steps: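 Randomized double-blind crossover single-dose trial with a 2-week washout: orange extract (1.95 g, 260 mg hesperidin) or lemon extract (3.1 g, 260 mg eriocitrin) in capsules. Plasma metabolites were measured by targeted UPLC-ESI-QTOF-MS against standards, or via UV-based relative response factors. PK parameters came from non-compartmental analysis.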

As for `C[C@@H]1O[C@@H](OC[C@H]2O[C@@H](Oc3cc(O)c4c(c3)O[C@H](c3ccc(O)c(O)c3)CC4=O)[C@H](O)[C@@H](O)[C@@H]2O)[C@H](O)[C@H](O)[C@H]1O` [eriocitrin, Eriocitrin], the Solubility result in series [1] was “higher solubility”.
Consider Hesperetin sulfoglucuronide [M11], for which, in series [2], the “Occurrence Urine LE (number of volunteers in whom the metabolite was detected)” value (“Occurrence Urine LE” below) turned out to be 0 and the “Occurrence Urine OE (number of volunteers in whom the metabolite was detected)” value (“Occurrence Urine OE” for short) is 7. For the same compound, in series [3], the “Occurrence Plasma LE (number of volunteers in whom the metabolite was detected)” value (from here on “Occurrence Plasma LE”) is given as 0 and the “Occurrence Plasma OE (number of volunteers in whom the metabolite was detected)” value (shortened to “Occurrence Plasma OE”) amounted to 8.
In the case of Homoeriodictyol glucuronide [M6], the “Urinary excretion F1” value in series [2] (mean ± SD) was determined as 13.9 ± 16.2 µg/mg creatinine. Besides, in series [2] (lemon extract, sum of fractions F1-F4 (24 h), mean ± SD), the “Urinary excretion Total F” value is 106 ± 171 µg/mg creatinine. For the same compound, in series [2] (lemon extract, mean ± SD), the “Urinary excretion F2” value is 48.1 ± 90.0 µg/mg creatinine, the “Urinary excretion F3” value amounted to 37.2 ± 56.9 µg/mg creatinine and the “Urinary excretion F4” value stood at 6.8 ± 8.0 µg/mg creatinine. Moreover, in series [2], the “Occurrence Urine LE” value came out at 16 and the “Occurrence Urine OE” value was found to be 3. In series [3], the “Occurrence Plasma LE” value turned out to be 16, the “Occurrence Plasma OE” value is listed as 3, the AUC(0-t) worked out at 3.133 ± 4.17 µM·h and the Cmax amounted to 780 ± 863 nM. Besides, the Tmax in series [3] is 6.1 ± 2.4 h.
As for Homoeriodictyol sulfate [M10], the “Urinary excretion F1” value in series [2] (mean ± SD) came to 3.8 ± 3.2 µg/mg creatinine. Further, in series [2] (lemon extract, mean ± SD), the “Urinary excretion F2” value worked out at 4.0 ± 5.5 µg/mg creatinine, the “Urinary excretion F3” value came out at 3.6 ± 4.1 µg/mg creatinine and the “Urinary excretion F4” value worked out at 0.5 ± 0.4 µg/mg creatinine. Further, in series [2], the “Occurrence Urine LE” value is reported as 16 and the “Occurrence Urine OE” value came to 0. In series [3], the “Occurrence Plasma LE” value came out at 16, the “Occurrence Plasma OE” value is on record as 3, the AUC(0-t) was 1.778 ± 2.257 µM·h and the Cmax came to 479 ± 524 nM. For the same compound, the Tmax in series [3] stood at 6.5 ± 2.2 h.

For orientation: AUC(0-t) means exposure summed from dosing to a finite time, without extrapolation to infinity. One may read the Cmax as the highest concentration seen after dosing. As a reminder, the Tmax is the time from dosing to the highest level.
